Measurements reported in US9115345B2, “MicroRNA induction of pluripotential stem cells and uses thereof” (The Trustees Of The University Of Pennsylvania, priority 2010, dated 2015).
“Also recorded” adds a separate entry of the source.

Legend:
[1] = test system: human foreskin and dermal fibroblasts; assay: Reprogramming of human fibroblasts: colonies with human ES like morphology; format: cell-based
Description: (§1) Mouse fibroblasts were isolated from Oct4-GFP, Rosa26-LacZ and Hdac2^flax/flax embryos at E13.5 and cultured in fibroblast medium as described (Takahashi et al., 2007). Hdac2 was excised by infection of Hdac2^flax/flax MEFs with adeno-cre virus. Human dermal fibroblast were cultured in DMEM/F12, 15% FBS, penicillin/streptomycin and L-glutamine. Viral particles were generated by transfection of plated 293T cells with pLOVE vectors encoding miR302/367, Oct4, Sox2, Klf4, or N-myc along with pMD.G and psPAX2 vectors as described (Blelloch et al., 2007). Supernatant from the transfected cells were collected every 24 hr for 48 hrs and titered. The titered viral suspension was mixed with 0.5 μl (0.1 of 10 μg/mL polybrene (American Bioanalytical, MA) per milliliter of viral suspension and used to infect fibroblasts. After viral infection, mouse fibroblast were cultured in mouse ES medium supplemented with or without valproic acid at a final concentration of 2 mM for the indicated length of time. Infected human fibroblast were culture in human ES medium as described (Huangfu et al., 2008a; Takahashi et al., 2007).

[2] = test system: Hdac1; assay: Western blot for Hdac1 in MEFs; format: cell-based, mouse; settings: MEFs during miR302/367 reprogramming
Description: (§2) Total cell lysates were prepared for Western blotting as previously described (Trivedi et al., 2008). Equal amounts of protein were resolved by SDS-PAGE and transferred to polyvinylidenedifluoride membranes. Membranes were incubated with Hdac1 antibody (1:1000 dilution, Cell Signaling), Hdac2 antibody (1:1000 dilution, Invitrogen) or Hdac3 antibody (1:1000 dilution, Sigma). Primary antibody binding was visualized by HRP-conjugated secondary antibody and detected by enhanced chemiluminescence (LumiGlo, Cell Signaling). For loading control, membranes were reprobed with primary antibody against GAPDH (1:2500 dilution, Abeam).

[3] = test system: Hdac2; assay: Western blot for Hdac2 in MEFs; format: cell-based, mouse; settings: MEFs during miR302/367 reprogramming
Description: as §2

[4] = test system: Hdac3; assay: Western blot for Hdac3 in MEFs; format: cell-based, mouse; settings: MEFs during miR302/367 reprogramming
Description: as §2

[5] = test system: MEFs; assay: CellTiter proliferation assay for MEFs; format: cell-based, mouse; settings: wild-type and Hdac2-/- MEFs
Description: Proliferation assays for MEFs were performed using the CellTiter 96 Aqueous One Solution Cell Proliferation kit (Promega, Inc.). 20 μl of CellTiter Reagent, which functions by being incorporated by viable cells into a colorimetric product that can be measured at 490 nm, was added to 100 μL of culture medium, incubated at 37° C. […] absorbance was measured at 490 nm at 1.5 hours, 2.5 hours, and 4.5 hours.

[6] = test system: Hdac2-/- MEFs; assay: miR302/367 reprogramming of Hdac2-/- MEFs; format: cell-based, mouse; settings: Hdac2-/- MEFs transduced with miR302/367
Description: as §1
The Hdac2p^flox/flox allele was generated by flanking exon 2 with loxP recombination sites using the targeting vector depicted in FIG. 19A. […]

[7] = test system: Oct4-GFP MEFs; assay: iPS reprogramming of Oct4-GFP MEFs: clones with ES like morphology and Oct4-GFP positive clones; format: cell-based, mouse; settings: day 10 of reprogramming; culture up to three weeks
Description: as §1

Compound | requirement for and effect of VPA on reprogramming human fibroblasts by miR302/367 [1] | Hdac1 protein expression level [2] | Hdac2 protein level [3] | Hdac3 protein expression level [4] | proliferation rates in MEFs [5] | effect of VPA addition on number of iPS cell clones [6] | iPS cell colony generation in MEFs [7]
CCCC(CCC)C(=O)O [VPA, valproic acid] | not required; also recorded: did not affect the efficiency of reprogramming | unchanged | caused degradation of Hdac2 protein | unchanged | did not affect proliferation rates | did not change the number of iPS cell clones | 
miR367: miR367 expressed alone; sequence AAUUGCACUUUAGCAAUGGUGA (SEQ ID NO: 8) (listed as Homo sapiens) |  |  |  |  |  |  | did not reprogram fibroblasts
